# Source: patent publication US20060069132A1, “Azolecarboxamide herbicides” (priority 2004, published 2006)
# What was measured:
# Surinam grass = assay: Test B pre-/postemergence herbicide test; format: in vivo, Urochloa decumbens; conditions: for Plant response rating, Surinam Grass: preemergence; for Surinam Grass plant response rating: postemergence, visual rating, scale 0 (no effect) to 100 (complete control)
# Method in brief: (§1)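 Test chemicals in a non-phytotoxic solvent mixture with surfactant were applied preemergence to seeded species and postemergence to plants 2-18 cm tall (1- to 4-leaf stage); rice and barnyardgrass were also tested in a flooded paddy at the 2-leaf stage. Visual rating versus controls after 13-15 days in greenhouse, scale 0 (no effect) to 100 (complete control).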
# large crabgrass [1] = assay: Test B pre-/postemergence herbicide test; format: in vivo, Digitaria sanguinalis; conditions: for Plant response rating, Crabgrass, Large: preemergence; for Crabgrass, Large plant response rating: postemergence, visual rating, scale 0 (no effect) to 100 (complete control)
# Method in brief: as §1
# morningglory [2] = assay: Test B pre-/postemergence herbicide test; format: in vivo, Ipomoea coccinea; conditions: preemergence, 125 g ai/ha; 0 to 100 scale, 0 is no effect, 100 is complete control
# Method in brief: (§2)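 Evaluation is visual, comparing treated with control plants on a scale where 0 means no effect and 100 means full control. Treatments were preemergence, or postemergence on seedlings 2–18 cm tall, and held 13–15 days in the greenhouse.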
# redroot pigweed = assay: Test A pre-/postemergence herbicide test; format: in vivo, Amaranthus retroflexus
# Method in brief: (§3)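 Pre: seeded sandy loam, directed soil spray, compound in non-phytotoxic solvent + surfactant. Post: 1–2-leaf plants (2–10 cm), sprayed to runoff. Greenhouse ~10 d; visual injury vs untreated, 0–100 scale.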
# wild oat = assay: Test B postemergence herbicide test; format: in vivo, Avena fatua; conditions: postemergence, visual rating, scale 0 (no effect) to 100 (complete control)
# Method in brief: (§4)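 Each value is a visual 0–100 response rating taken against controls 13 to 15 days after treatment in the greenhouse. Plants received formulated chemical postemergence at the 1- to 4-leaf stage or, in flooded paddy, at the 2-leaf stage.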
# ducksalad = assay: Test B flooded paddy test; format: in vivo, Heteranthera limosa; conditions: 1000 g ai/ha, visual rating, scale 0 to 100 (0 no effect, 100 complete control), 13 to 15 days
# Method in brief: as §4
# giant foxtail [3] = assay: Test B pre-/postemergence herbicide test; format: in vivo, Setaria faberi; conditions: for Plant response rating, Foxtail, Giant: preemergence; for Foxtail, Giant plant response rating: postemergence, visual rating, scale 0 (no effect) to 100 (complete control)
# Method in brief: as §1
# velvetleaf [4] = assay: Test A pre-/postemergence herbicide test; format: in vivo, Abutilon theophrasti
# Method in brief: as §3
# wheat = assay: Test B postemergence herbicide test; format: in vivo, Triticum aestivum; set-up: key to Wheat plant response rating: 0 = no effect, 100 = complete control; conditions: postemergence, visual rating, scale 0 (no effect) to 100 (complete control)
# Method in brief: as §4
# morningglory [5] = assay: Test A pre-/postemergence herbicide test; format: in vivo, Ipomoea spp.
# Method in brief: as §3
# cocklebur = assay: Test B pre-/postemergence herbicide test; format: in vivo, Xanthium strumarium; conditions: for Plant response rating, Cocklebur: preemergence; for Cocklebur plant response rating: postemergence, visual rating, scale 0 (no effect) to 100 (complete control)
# Method in brief: as §2
# velvetleaf [6] = assay: Test B pre-/postemergence herbicide test; format: in vivo, Abutilon theophrasti; conditions: for Plant response rating, Velvetleaf: preemergence; for Velvetleaf plant response rating: postemergence, visual rating, scale 0 (no effect) to 100 (complete control)
# Method in brief: as §1
# barnyardgrass [7] = assay: Test B flooded paddy test; format: in vivo, Echinochloa crus-galli; conditions: 1000 g ai/ha, visual rating, scale 0 to 100 (0 no effect, 100 complete control), 13 to 15 days
# Method in brief: as §4
# pigweed = assay: Test B pre-/postemergence herbicide test; format: in vivo, Amaranthus retroflexus; conditions: for Plant response rating, Pigweed: preemergence; for Pigweed plant response rating: postemergence, visual rating, scale 0 (no effect) to 100 (complete control)
# Method in brief: as §1
# barnyardgrass [8] = assay: Test B pre-/postemergence herbicide test; format: in vivo, Echinochloa crus-galli; conditions: for Plant response rating, Barnyardgrass: preemergence; for Barnyardgrass plant response rating: postemergence, visual rating, scale 0 (no effect) to 100 (complete control)
# Method in brief: as §2
# corn = assay: Test B pre-/postemergence herbicide test; format: in vivo, Zea mays; conditions: preemergence
# Method in brief: as §1
# rice [9] = assay: Test B flooded paddy test; format: in vivo, Oryza sativa; conditions: 1000 g ai/ha, visual rating, scale 0 to 100 (0 no effect, 100 complete control), 13 to 15 days
# Method in brief: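 Paddy species grown to the 2-leaf stage under flooding; blackgrass sprayed postemergence at 2–18 cm (1- to 4-leaf stage). Plants kept in a greenhouse for 13 to 15 days, then visually rated against controls on 0 (no effect) to 100 (complete control).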
# lambsquarters = assay: Test B pre-/postemergence herbicide test; format: in vivo, Chenopodium album; conditions: for Plant response rating, Lambsquarters: preemergence; for Lambsquarters plant response rating: postemergence, visual rating, scale 0 (no effect) to 100 (complete control)
# Method in brief: as §1
# [10] = tested on: small flower umbrella sedge; assay: Test B flooded paddy test; format: in vivo, Cyperus difformis; conditions: 1000 g ai/ha, visual rating, scale 0 to 100 (0 no effect, 100 complete control), 13 to 15 days
# Method in brief: as §4
# blackgrass = assay: Test B postemergence herbicide test; format: in vivo, Alopecurus myosuroides; conditions: postemergence, visual rating, scale 0 (no effect) to 100 (complete control)
# Method in brief: as §4
# giant foxtail [11] = assay: Test A pre-/postemergence herbicide test; format: in vivo, Setaria faberi
# Method in brief: as §3
# rice [12] = assay: Test B pre-/postemergence herbicide test; format: in vivo, Oryza sativa; conditions: preemergence, 125 g ai/ha; 0 to 100 scale, 0 is no effect, 100 is complete control
# Method in brief: as §1
# large crabgrass [13] = assay: Test A pre-/postemergence herbicide test; format: in vivo, Digitaria sanguinalis
# Method in brief: as §3
# barnyardgrass [14] = assay: Test A pre-/postemergence herbicide test; format: in vivo, Echinochloa crus-galli
# Method in brief: as §3
# [15] = 500 g ai/ha, visual rating 0-100, 0 no effect, 100 complete control
# [16] = 125 g ai/ha, 0 to 100 scale, 0 is no effect, 100 is complete control
# [17] = Postemergence, 500 g ai/ha, 0 to 100 scale, 0 no effect, 100 complete control
# [18] = Postemergence, 2000 g ai/ha, 0 to 100 scale, 0 no effect, 100 complete control
# [19] = Preemergence, 2000 g ai/ha, visual rating, 0 to 100 scale (0 no effect, 100 complete control)
# [20] = preemergence, 500 g ai/ha, visual injury, 0 to 100 scale (0 no effect, 100 complete control)
# [21] = Preemergence, 500 g ai/ha, visual rating, 0 to 100 scale (0 no effect, 100 complete control)
smiles,measurement,setting,value
CCC(C)c1cc(C(=O)Nc2cccc(C(C)=NO)c2)n(C)n1 (stereo not shown) [Compound 120],"Plant response rating, Surinam Grass",Surinam grass; [15],0
same,Surinam Grass plant response rating,Surinam grass; 125 g ai/ha,20
same,Surinam Grass plant response rating,Surinam grass; 500 g ai/ha,50
same,"Plant response rating, Surinam Grass",Surinam grass; [16],0
same,"Plant response rating, Crabgrass, Large",large crabgrass [1]; [15],90
same,"Crabgrass, Large plant response rating",large crabgrass [1]; 125 g ai/ha,10
same,"Crabgrass, Large plant response rating",large crabgrass [1]; 500 g ai/ha,20
same,"Plant response rating, Crabgrass, Large",large crabgrass [1]; [16],70
same,"Plant response rating, Morningglory",morningglory [2],10
same,Pigweed plant response rating,redroot pigweed; [17],50
same,"Plant response rating, Pigweed",redroot pigweed; [18],85
same,Pigweed plant response rating,redroot pigweed; [19],50
same,Pigweed plant response rating,redroot pigweed; [20],20
same,"Oat, Wild plant response rating",wild oat; 125 g ai/ha,10
same,"Oat, Wild plant response rating",wild oat; 500 g ai/ha,10
same,Ducksalad plant response rating,ducksalad,70
same,"Plant response rating, Foxtail, Giant",giant foxtail [3]; [15],70
same,"Foxtail, Giant plant response rating",giant foxtail [3]; 125 g ai/ha,10
same,"Foxtail, Giant plant response rating",giant foxtail [3]; 500 g ai/ha,10
same,"Plant response rating, Foxtail, Giant",giant foxtail [3]; [16],0
same,Velvetleaf plant response rating,velvetleaf [4]; [17],25
same,"Plant response rating, Velvetleaf",velvetleaf [4]; [18],30
same,Velvetleaf plant response rating,velvetleaf [4]; [19],40
same,Velvetleaf plant response rating,velvetleaf [4]; [20],20
same,Wheat plant response rating,wheat; 125 g ai/ha,10
same,Wheat plant response rating,wheat; 500 g ai/ha,10
same,Morningglory plant response rating,morningglory [5]; [17],20
same,"Plant response rating, Morningglory",morningglory [5]; [18],40
same,Morningglory plant response rating,morningglory [5]; [21],20
same,Morningglory plant response rating,morningglory [5]; [19],55
same,"Plant response rating, Cocklebur",cocklebur; [15],0
same,Cocklebur plant response rating,cocklebur; 125 g ai/ha,30
same,Cocklebur plant response rating,cocklebur; 500 g ai/ha,60
same,"Plant response rating, Cocklebur",cocklebur; [16],0
same,"Plant response rating, Velvetleaf",velvetleaf [6]; [15],40
same,Velvetleaf plant response rating,velvetleaf [6]; 125 g ai/ha,10
same,Velvetleaf plant response rating,velvetleaf [6]; 500 g ai/ha,30
same,"Plant response rating, Velvetleaf",velvetleaf [6]; [16],20
same,Barnyardgrass plant response rating,barnyardgrass [7],30
same,"Plant response rating, Pigweed",pigweed; [15],30
same,Pigweed plant response rating,pigweed; 125 g ai/ha,10
same,Pigweed plant response rating,pigweed; 500 g ai/ha,70
same,"Plant response rating, Pigweed",pigweed; [16],0
same,"Plant response rating, Barnyardgrass",barnyardgrass [8]; [15],90
same,Barnyardgrass plant response rating,barnyardgrass [8]; 125 g ai/ha,10
same,Barnyardgrass plant response rating,barnyardgrass [8]; 500 g ai/ha,10
same,"Plant response rating, Barnyardgrass",barnyardgrass [8]; [16],0
same,"Plant response rating, Corn",corn; [15],0
same,"Plant response rating, Corn",corn; [16],0
same,Rice plant response rating,rice [9],0
same,"Plant response rating, Lambsquarters",lambsquarters; [15],20
same,Lambsquarters plant response rating,lambsquarters; 125 g ai/ha,0
same,Lambsquarters plant response rating,lambsquarters; 500 g ai/ha,50
same,"Plant response rating, Lambsquarters",lambsquarters; [16],0
same,"Sedge, Umbrella plant response rating",[10],10
same,Blackgrass plant response rating,blackgrass; 125 g ai/ha,0
same,Blackgrass plant response rating,blackgrass; 500 g ai/ha,10
same,"Foxtail, Giant plant response rating",giant foxtail [11]; [17],20
same,"Plant response rating, Foxtail, Giant",giant foxtail [11]; [18],20
same,"Foxtail, Giant plant response rating",giant foxtail [11]; [21],25
same,"Foxtail, Giant plant response rating",giant foxtail [11]; [19],55
same,"Plant response rating, Rice",rice [12],0
same,"Crabgrass, Large plant response rating",large crabgrass [13]; [17],50
same,"Plant response rating, Crabgrass, Large",large crabgrass [13]; [18],65
same,"Crabgrass, Large plant response rating",large crabgrass [13]; [21],45
same,"Crabgrass, Large plant response rating",large crabgrass [13]; [19],75
same,Barnyardgrass plant response rating,barnyardgrass [14]; [17],45
same,"Plant response rating, Barnyardgrass",barnyardgrass [14]; [18],65
same,Barnyardgrass plant response rating,barnyardgrass [14]; [21],30
same,Barnyardgrass plant response rating,barnyardgrass [14]; [19],85
